Test results reported in patent publication US12728119B2, “Pharmaceutical composition for preventing or treating cancer comprising 3-ketoacyl CoA thiolase inhibitor and carnitine acylcarnitine carrier inhibitor” (NATIONAL CANCER CENTER, priority 2020, dated 2026).

System: MIA PaCa-2 cells
Experiment: Xenograft tumor model
Type: in vivo, Balb/c-nu mice
Method: MIA PaCa-2 cells (1×10 7) in 100 μl PBS were subcutaneously inoculated into 6-8 weeks old Balb/c-nu mice (Orient, Seoul, Korea) using a 1 ml syringe. After one week, the mice were divided into three groups: a control group (solvent treatment), a KN713 40 mg/kg/100 μl treatment group, and a KN713 80 mg/kg/200 μl treatment group. KN713 was administered intraperitoneally once a day (for 49 days, 6 days/week, n=7). The primary tumor size was measured weekly using a caliper, and the tumor volume was calculated using the formula V=(A×B^2)/2 (V=volume (mm^3), A=long diameter, B=short diameter). This experiment was reviewed and approved by the Institutional Animal Care and Use Committee (IACUC) of the National Cancer Center Research Institute, which was established by the International Association for Accreditation of Laboratory Animals (It was accredited by AAALAC International).

SMILES: COc1ccc(CN2CCNCC2)c(OC)c1OC [KN713, trimetazidine]
- tumor size (tumor volume) (KN713 40 mg/kg intraperitoneally once a day, column 3 (measured weekly), Control 148.59): 147.09 mm^3
- tumor size (tumor volume) (KN713 40 mg/kg intraperitoneally once a day, column 4 (measured weekly), Control 448.52): 319.40 mm^3
- tumor size (tumor volume) (KN713 40 mg/kg intraperitoneally once a day, column 5 (measured weekly), Control 748.89): 499.29 mm^3
- tumor size (tumor volume) (KN713 40 mg/kg intraperitoneally once a day, column 6 (measured weekly), Control 944.41): 593.57 mm^3
- tumor size (tumor volume) (KN713 40 mg/kg intraperitoneally once a day, column 7 (measured weekly), Control 1472.13): 790.38 mm^3
- tumor size (tumor volume) (KN713 40 mg/kg intraperitoneally once a day, column 8 (measured weekly), Control 1709.54): 965.18 mm^3
- tumor size (tumor volume) (KN713 80 mg/kg intraperitoneally once a day, column 3 (measured weekly), Control 148.59): 147.36 mm^3
- tumor size (tumor volume) (KN713 80 mg/kg intraperitoneally once a day, column 4 (measured weekly), Control 448.52): 279.36 mm^3
- tumor size (tumor volume) (KN713 80 mg/kg intraperitoneally once a day, column 5 (measured weekly), Control 748.89): 372.00 mm^3
- tumor size (tumor volume) (KN713 80 mg/kg intraperitoneally once a day, column 6 (measured weekly), Control 944.41): 420.82 mm^3
- tumor size (tumor volume) (KN713 80 mg/kg intraperitoneally once a day, column 7 (measured weekly), Control 1472.13): 589.49 mm^3
- tumor size (tumor volume) (KN713 80 mg/kg intraperitoneally once a day, column 8 (measured weekly), Control 1709.54): 555.42 mm^3
- tumor size (mouse model transplanted with MIA PaCa2, result in words): significantly suppressed
